# Test results taken from patent US20140274978A1, “Phytosterol spirostane and spirostene derivatives having a wide variety of utilities in humans and other animals” (priority 2013, published 2014).
# Like-named read-outs stand apart in the source and are kept apart here.
# Legend:
# [1] = Oral 5-androsten-3β,17β-diol-7-one diacetate with weight resistance training; format: in vivo, humans
# Experimental: Human volunteers familiar with conventional anabolic steroids used 60 mg/day (20 mg tid) 5-androsten-3β,17β-diol-7-one diacetate orally, in conjunction with weight resistance training.
# [2] = Oral administration to older dogs (vigor, health); format: in vivo; details: for activity, stamina, appetite, stiffness, overall health reported by pet owners / lean muscle mass and body fat: dogs of 7-14 years of age; for activity, stamina, appetite, stiffness, overall health reported by pet owners: 1-10 mg/day in two divided doses; for lean muscle mass and body fat: over 2-3 months administration; for behavior of ailing dogs / age lived to: two Rhodesian Ridgeback dogs; for behavior of ailing dogs: age 13, failure to thrive; for age lived to: daily dosages from age 13
# Excerpt: Their appetite and activity increased, they became leaner—leaner muscle, wanted to go for walks and became like a new dog. They lived another 3 years on a daily dosages to age 16. Their treating Veterinarian said he had never seen dogs of their size and breed live to such an advanced age. Numerous similar reports were collected.
# See Kokl. Akad. Nauk. Uzb., SSR, 1981, v.3, pp. 31-33. See also Farmakol. Toksikol., 1976, 39(5), pp. 631-35.
# [3] = Topical lotion on severely atrophic skin of an elderly person; format: in vivo, humans; details: atrophic skin of hands; for skin elasticity and strength: after one month; for traumatic purpurra and venous lakes: two months
# Excerpt: Phytosterol derivative compounds of the present invention are also useful as skin agents for animals and useful as cosmetic agents when formulated in preparations which, when applied to the skin, create a penetrating flux that will deliver the compound to both the epidermis and dermis. The preferred lotion formulations are of low irritancy and are generally comprised of either a spirostane or a spirostene or, preferably for synergistic reasons, a combination of both [0.05-0.2% (w/w) combined in a ratio of 2:1 to 1:2] dissolved in a solution consisting of propylene glycol [50-70% (w/w)]. propylene carbonate [15-25% (w/w)], water [10-20% (w/w)], and glycerol [0.12.0% (w/w)]. The steroid solutions are most preferably formulated at 80-90% saturation.
# The compounds of invention, when formulated as above, are useful for reversing many aspects of degenerative skin disorders (such as thin, fragile, inelastic skin and weakened dermal blood vessels) due to various causes such as aging or chronic corticosteroid therapy.
# [4] = Physical stamina and endurance of hunting dogs; format: in vivo; details: 5-10 mg/day
# Excerpt: The compounds of invention are also useful for increasing physical stamina and endurance in young working and sporting dogs used for hunting, sled pulling and herding and dogs in competitions such as greyhound racing, field trials, agility, disc dog, dock jumping and Schutzhund.
# [5] = Synergy of 7-keto-diosgenin with laxogenin and/or 5-hydroxy laxogenin (inventor's finding); details: 1:1 ratio found effective
# [6] = Oral administration to aging human volunteers (energy, stamina, sleep); format: in vivo, humans
# Experimental: The spirostanic compounds of the invention are also useful in increasing and restoring health and vigor, useful in preventing fatigue, and useful in improving physical condition and performance and increasing work output in aging humans and other mammals. For example, 15 mg of 25R-Spirostan-3B, 5α-diol-6-one was given to a person in three divided doses per day (t.i.d.) for two weeks.
# 15 mg of 25R-Spirostan-3B, 5α-diol-6-one was given to a person in three divided doses per day (t.i.d.) for two weeks.
# estrogen receptors = assay: Competitive binding inhibition studies (Baylor University), estrogen receptors; details: even at the limits of compound solubility
# Excerpt: (§1) Consequently, the spirostane and spirostene compounds of the present invention are expected to be devoid of hormonal activity.
# androgen receptors = target: T1, androgen receptors (Homo sapiens, UniProt P10275); assay: Competitive binding inhibition studies (Baylor University), androgen receptors; details: even at the limits of compound solubility
# T1 sequence (P10275 1-920): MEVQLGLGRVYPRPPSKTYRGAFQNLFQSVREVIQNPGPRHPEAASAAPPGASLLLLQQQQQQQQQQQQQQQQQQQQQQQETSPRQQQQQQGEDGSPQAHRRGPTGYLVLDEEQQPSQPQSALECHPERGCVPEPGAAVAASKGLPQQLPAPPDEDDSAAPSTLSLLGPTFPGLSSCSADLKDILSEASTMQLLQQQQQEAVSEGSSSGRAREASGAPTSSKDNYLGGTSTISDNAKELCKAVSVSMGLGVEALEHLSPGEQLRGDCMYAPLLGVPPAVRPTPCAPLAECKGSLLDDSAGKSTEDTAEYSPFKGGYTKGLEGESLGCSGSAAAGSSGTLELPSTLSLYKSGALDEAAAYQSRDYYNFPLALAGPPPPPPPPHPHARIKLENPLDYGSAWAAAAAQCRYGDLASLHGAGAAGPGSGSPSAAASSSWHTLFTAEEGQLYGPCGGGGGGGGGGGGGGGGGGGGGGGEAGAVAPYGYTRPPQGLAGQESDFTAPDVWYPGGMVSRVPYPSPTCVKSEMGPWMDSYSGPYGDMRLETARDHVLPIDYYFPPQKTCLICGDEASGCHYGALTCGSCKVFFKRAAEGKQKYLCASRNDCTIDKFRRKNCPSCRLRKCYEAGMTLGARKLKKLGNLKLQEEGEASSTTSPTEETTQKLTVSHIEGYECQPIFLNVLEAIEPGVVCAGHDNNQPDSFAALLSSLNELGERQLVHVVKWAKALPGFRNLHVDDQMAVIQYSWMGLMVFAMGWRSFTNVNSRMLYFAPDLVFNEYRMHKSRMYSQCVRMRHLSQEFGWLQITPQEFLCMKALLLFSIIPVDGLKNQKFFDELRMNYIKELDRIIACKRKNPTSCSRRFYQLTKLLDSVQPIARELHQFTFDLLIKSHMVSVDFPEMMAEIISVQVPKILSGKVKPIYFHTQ
# Excerpt: as §1
# [7] = cited from earlier work
# [8] = Life span of a Great Dane on daily administration; format: in vivo, dogs; details: 8 mg/day from age 8, upper limit for lineage 10 years
# Experimental: The compounds of invention are also useful for lengthening the life span of various large breeds of dogs (and presumably small breeds). One Great Dane. given 25R-Spirostan-3B, 5α-diol-6-one daily (8 mg/day) from age 8 on. lived to be almost 13 years old. The dog had to be euthanized because it suffered from dysplasia in both hips; otherwise it was healthy and active. The upper limit of age for Great Danes of this lineage was previously considered to be 10 years.
# A Great Dane that was given 25R-Spirostan-3B, 5α-diol-6-one daily (8 mg/day) from age 8 on lived to be almost 13 years old. The dog had to be euthanized because it suffered from dysplasia in both hips; otherwise it was healthy and active. The upper limit of age for Great Danes of this particular lineage was previously considered to be 10 years.
# [9] = Laxogenin in a person with double knee replacement (pain, recovery); format: in vivo, humans
# Experimental: The compounds of the present invention also have the ability to mediate and/or reduce pain in humans and other animals. A person received a double knee replacement due to long time injuries. They began taking 3 doses per day of Laxogenin at 150 mg per dose one week prior to knee surgery.
# [10] = rat, in vivo, 25 mg/kg; cited from earlier work
# [11] = 3 grams/day for 30 days, humans; cited from earlier work
# [12] = labeled ecdysterone 50 mg/kg, mice; cited from earlier work
# protein synthesis = details: cited from earlier work; for sensitivity of protein stimulation to actinomycin D: Russian report, Biol. Nauki 1984
# [13] = 15 mg in three divided doses per day, two weeks, person
compound,measurement,setting,value
"CC(=O)O[C@H]1CC[C@@]2(C)C(=CC(=O)[C@H]3[C@@H]4CC[C@H](OC(C)=O)[C@@]4(C)CC[C@@H]32)C1 [5-androsten-3β,17β-diol-7-one diacetate]",androgenic side-effects,[1]; 60 mg/day (20 mg tid) orally,No subject reported any noticeable androgenic side-effects
same,"strength, endurance and muscle mass accretion",[1]; 60 mg/day (20 mg tid) orally with weight resistance training,increases in strength and endurance as well as accelerated increases in muscle mass accretion
"C[C@@H]1CC[C@@]2(OC1)O[C@H]1C[C@H]3[C@@H]4C(=O)C=C5C[C@@H](O)CC[C@]5(C)[C@H]4CC[C@]3(C)[C@H]1[C@@H]2C [7-keto-diosgenin, 5,25R-spirosten-3β-ol-7-one]","activity, stamina, appetite, stiffness, overall health reported by pet owners",[2],"increased activity, playfulness, physical stamina, appetite and interaction with owners, reduced stiffness and weakness, and improved overall health"
same,lean muscle mass and body fat,[2],increased many of the dogs' lean muscle mass while reducing body fat
same,behavior of ailing dogs,[2],started to exhibit puppy like behavior after 48 hours
same,age lived to,[2],16
same,skin elasticity and strength,[3],dramatic increases in skin elasticity and strength
same,traumatic purpurra and venous lakes,[3],Virtually all traumatic purpurra and venous lakes were resolved within two months
same,physical stamina and endurance,[4],noticeable improvement in their dogs physical stamina and endurance within one week
same,synergy with laxogenin and/or 5-hydroxy laxogenin,[5],unexpectedly synergistic
"C[C@@H]1CC[C@@]2(OC1)O[C@H]1C[C@H]3[C@@H]4CC(=O)[C@@]5(O)C[C@@H](O)CC[C@]5(C)[C@H]4CC[C@]3(C)[C@H]1[C@@H]2C [25R-Spirostan-3B, 5α-diol-6-one, (25R)-spirostan-3β-5α-diol-6-one]","activity, stamina, appetite, stiffness, overall health reported by pet owners",[2],"increased activity, playfulness, physical stamina, appetite and interaction with owners, reduced stiffness and weakness, and improved overall health"
same,lean muscle mass and body fat,[2],increased many of the dogs' lean muscle mass while reducing body fat
same,skin elasticity and strength,[3],dramatic increases in skin elasticity and strength
same,traumatic purpurra and venous lakes,[3],Virtually all traumatic purpurra and venous lakes were resolved within two months
same,length of time able to work in garden,[6]; [13],2-3 times
same,"well-being, energy and physical stamina",[6]; [13],"overall increase in well-being, accompanied by a definite increase in energy and physical stamina"
same,total sleep time,"[6]; 60 mg/day, over one month, increased from 6 hrs/night",approximately 8 hrs/night
same,physical energy and stamina,"[6]; 60 mg/day, person and person",definite increases in physical energy and stamina within one week
same,binding to estrogen receptors,estrogen receptors,did not bind
same,binding to androgen receptors,androgen receptors,did not bind
same,physical stamina and endurance,[4],noticeable improvement in their dogs physical stamina and endurance within one week
same,anabolic activity in older (mature) rats,[7]; older (i.e. mature) rats,reduced anabolic activity
same,anabolic activity in young rats,[7]; young rats,higher anabolic activity
same,age lived to,[8],~13 years
"C[C@@H]1CC[C@@]2(OC1)O[C@H]1C[C@H]3[C@@H]4CC(=O)[C@H]5C[C@@H](O)CC[C@]5(C)[C@H]4CC[C@]3(C)[C@H]1[C@@H]2C [Laxogenin, (25R)-3β-hydroxy-5α-spirostan-6-one]",behavior of ailing dogs,[2],started to exhibit puppy like behavior after 48 hours
same,age lived to,[2],16
same,pain before surgery,"[9]; 3 doses per day at 150 mg per dose, started one week prior to knee surgery",pain had diminished their third day
same,standing and walking,[9]; 7th day after surgery,"could stand and walk far distances free of pain, stiffness and discomfort"
same,need for morphine drip,[9]; day after operation,able to discontinue their morphine drip altogether
same,surface inflammation and scarring,[9]; liquid version applied topically,reduced surface inflammation and scarring greatly
C[C@@H]1CC[C@@]2(OC1)O[C@H]1C[C@H]3[C@@H]4CC=C5C[C@@H](O)CC[C@]5(C)[C@H]4CC[C@]3(C)[C@H]1[C@@H]2C [diosgenin],serum half-life,[10],approximately 14 hours
same,metabolism in the B-ring,[11],not metabolized in the B-ring
"CC(C)(O)CC[C@@H](O)[C@](C)(O)[C@H]1CC[C@@]2(O)C3=CC(=O)[C@@H]4C[C@@H](O)[C@@H](O)C[C@]4(C)[C@H]3CC[C@]12C [ecdysterone, 20-Hydroxyecdysone]",serum half-life,[12],8.15 min
same,repression of induced protein synthesis by actinomycin D,"protein synthesis; Japanese report, Chem. Pharm. Bull. 1969",partially repressed
same,sensitivity of protein stimulation to actinomycin D,protein synthesis,completely insensitive to actinomycin D
CC(C)(O)CC[C@@H](O)[C@](C)(O)[C@H]1CC[C@@]2(O)C3=CC(=O)[C@@H]4C[C@@H](O)[C@@H](O)C[C@]4(C)[C@H]3[C@H](O)C[C@]12C [turkesterone],sensitivity of protein stimulation to actinomycin D,protein synthesis,completely insensitive to actinomycin D
